Structures are written as SMILES.

The target in this test is human 11β-HSD1 microsome fraction (Homo sapiens, UniProt P28845). In words: Enzymatic 11beta-HSD1 test (SPA-based detection). Conditions: IC50 (nM), Biological activity, [1,2-3H]-cortisone, 0.25 mM NADPH, 37° C. for 1 hour.
human 11β-HSD1 microsome fraction, sequence (P28845 whole entry): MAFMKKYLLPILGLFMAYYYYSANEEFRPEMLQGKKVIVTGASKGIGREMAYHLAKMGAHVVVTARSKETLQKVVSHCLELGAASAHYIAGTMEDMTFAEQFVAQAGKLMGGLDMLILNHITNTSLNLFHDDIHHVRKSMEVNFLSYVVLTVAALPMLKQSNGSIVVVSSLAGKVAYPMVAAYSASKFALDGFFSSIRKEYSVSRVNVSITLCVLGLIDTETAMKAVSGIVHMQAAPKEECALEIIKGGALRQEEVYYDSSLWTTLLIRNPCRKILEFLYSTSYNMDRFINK
Procedure: Enzymatic 11beta-HSD1 test:
Protein and radioactive substrate were dispensed with a Biomek FX unit (Beckman Coulter) for handling liquids. The test compounds were added with a Cybi-Well equipped with a 90 nl pin tool (CyBio).
As for `O=S1(=O)N=C(N[C@@H](CCO)c2ccc(F)cc2)OC2CCCCC21` (single isomer, unassigned) [Example 19], the IC50 stood at 11 nM.
Next, `O=S1(=O)N=C(N[C@@H](CCO)c2ccc(F)cc2)OC2CCCCC21` (single isomer, unassigned) [Example 20]: 13 nM.
Next, `O=S1(=O)N=C(N[C@@H](CCO)c2ccccc2)OC2CCOCC21` (single isomer, unassigned) [Example 26]: 742 nM.
In the case of `O=S1(=O)N=C(N[C@@H](CCO)c2ccccc2)OC2CCOCC21` (single isomer, unassigned) [Example 27] it was 62 nM; in that of `CC12CCCCC1(C)S(=O)(=O)N=C(N[C@@H](CCO)c1ccccc1)O2` (single isomer, unassigned) [Example 31], 34 nM.
`CC12CCCCC1(C)S(=O)(=O)N=C(N[C@@H](CCO)c1ccccc1)O2` (single isomer, unassigned) [Example 32]: half-maximal inhibition (IC50) required 4 nM.
In the case of `CC12CCCCC1(C)S(=O)(=O)N=C(N[C@@H](CCO)c1cccnc1)O2` (single isomer, unassigned) [Example 33] it was 9 nM.
In the case of `CC12CCCCC1(C)S(=O)(=O)N=C(N[C@@H](CCO)c1cccnc1)O2` (single isomer, unassigned) [Example 34] it was 353 nM; in that of `O=S1(=O)N=C(N[C@@H](CO)Cc2ccccc2)OC2CCCCC21` (stereo partly drawn) [Example 2, (R)-2-(−1,1-Dioxo-4a,5,6,7,8,8a-hexahydro-1H-1lambda6-benzo[1,4,3]oxathiazin-3-ylamino)-3-phenyl-propan-1-ol], 575 nM.
Next, `O=S1(=O)N=C(N[C@H](CO)Cc2ccccc2)OC2CCCCC21` (stereo partly drawn) [Example 3, (S)-2-(−1,1-Dioxo-4a,5,6,7,8,8a-hexahydro-1H-1lambda6-benzo[1,4,3]oxathiazin-3-ylamino)-3-phenyl-propan-1-ol]: 24 nM; `O=S1(=O)N=C(N[C@@H](CCO)c2ccc(F)cc2)OC2CCCCC21` (stereo partly drawn) [Example 9, (S)-3-(−1,1-Dioxo-4a,5,6,7,8,8a-hexahydro-1H-1lambda6-benzo[1,4,3]oxathiazin-3-ylamino)-3-(4-fluoro-phenyl)-propan-1-ol]: 5 nM; `O=S1(=O)N=C(N[C@@H](CCO)c2cccc(F)c2)OC2CCCCC21` (stereo partly drawn) [Example 10, (S)-3-(−1,1-Dioxo-4a,5,6,7,8,8a-hexahydro-1H-1lambda6-benzo[1,4,3]oxathiazin-3-ylamino)-3-(3-fluoro-phenyl)-propan-1-ol]: 104 nM.
In the case of `O=S1(=O)N=C(N[C@@H](CCO)c2cccc(F)c2)OC2CCCCC21` (stereo partly drawn) [Example 17, (S)-3-(−1,1-Dioxo-4a,5,6,7,8,8a-hexahydro-1H-1lambda6-benzo[1,4,3]oxathiazin-3-ylamino)-3-(3-fluoro-phenyl)-propan-1-ol], it took 27 nM to reach half-maximal inhibition (IC50).
Next, `O=S1(=O)N=C(N[C@@H](CCO)c2ccc(F)cc2)OC2CCCCC21` (stereo partly drawn) [Example 18, (S)-3-(−1,1-Dioxo-4a,5,6,7,8,8a-hexahydro-1H-1lambda6-benzo[1,4,3]oxathiazin-3-ylamino)-3-(4-fluoro-phenyl)-propan-1-ol]: 4 nM; `O=S1(=O)N=C(N[C@@H](CCO)c2cccnc2)O[C@H]2CCCC[C@H]21` [Example 25, (S)-3-((4aS,8aR)-1,1-Dioxo-4a,5,6,7,8,8a-hexahydro-1H-1lambda6-benzo[1,4,3]oxathiazin-3-ylamino)-3-pyridin-3-yl-propan-1-ol]: 25 nM; `O=S1(=O)N=C(N[C@@H](CCO)c2ccccc2)OC2CCC(F)(F)CC21` (stereo partly drawn) [Example 28, (S)-3-(7,7-Difluoro-1,1-dioxo-4a,5,6,7,8,8a-hexahydro-1H-1lambda6-benzo[1,4,3]oxathiazin-3-ylamino)-3-phenyl-propan-1-ol]: 445 nM.
In the case of `NS(=O)(=O)CC(NC1=NS(=O)(=O)[C@@H]2CCCC[C@@H]2O1)c1ccccc1` (stereo partly drawn) [Example 29, 2-((4aS,8aR)-1,1-Dioxo-4a,5,6,7,8,8a-hexahydro-1H-1lambda6-benzo[1,4,3]oxathiazin-3-ylamino)-2-phenyl-ethanesulfonamide] it was 15 nM; in that of `NS(=O)(=O)CC(NC1=NS(=O)(=O)[C@@H]2CCCC[C@@H]2O1)c1ccccc1` (stereo partly drawn) [Example 30, 2-((4aS,8aR)-1,1-Dioxo-4a,5,6,7,8,8a-hexahydro-1H-1lambda6-benzo[1,4,3]oxathiazin-3-ylamino)-2-phenyl-ethanesulfonamide], 11 nM.

Values taken from US8828995B2, “Branched oxathiazine derivatives, method for the production thereof, use thereof as medicine and drug containing said derivatives and use thereof” (Sanofi, priority 2011, dated 2014).
